≈ marks a conversion by molar mass, not a printed value. Where “and” joins values, the source holds several entries; their conditions need not be identical. Equal entries are not always repeated.
Legend:
[1] = tested on: H. pylori; assay: Minimum bactericidal concentration assay (MBC assay) against H. pylori; format: cell-based, Helicobacter pylori; conditions: for MBC: Helicobacter pylori; for anti-bacterial activity toward H. pylori (in words): wild type (26695) and clinical isolated strains
Description: To evaluate the anti-H. pylori activity, the minimum bactericidal concentration (MBC) value of compounds was determined. The MBC value of standard antibiotics, clarithromycine (CLR) and metronidazole (MTZ) were served as the positive control.
Wild type (26695, as reference strain) was cultured on brucella broth agar plate containing 1% IsovialeX (Becton, Dickinson and Company, USA) and 10% sheep blood in microaerophilic environment (5% O2, 10% CO2, and 85% N2), 37° C. Clinical strains (v574, v633, v1086, v1254, v1267, v1354 and v2311) were cultured on brucella broth agar plate containing 1% IsovialeX and 20%-30% sheep blood in microaerophilic environment (5% O2, 10% CO2, and 85% N2), 37° C.
Wild type and selected clinical H. pylori strains was cultured for 24 to 36 hours and measured by Cell density meter, O.D. 680 at 0.87-0.9. H. pylori and selected compounds with serial concentration were mixed in Brucella-broth (BD) with 10% of FBS in 24-well plate, and total volume of each well was 300 μl, cultured under 37° C. with 180 rpm shaking. After incubated for 24 hours, 3 μl of each well was seeding on blood agar plate for another 48 hours culture. […] The final concentration of DMSO in the assay was less than 5% to avoid any effect in the growth of H. pylori at this experiment.

[2] = biological target: T1, H. pylori Shikimate Dehydrogenase (HpSDH) (Helicobacter pylori, UniProt P56119); assay: Inhibition activity assay toward HpSDH; format: biochemical; conditions: for inhibition activity toward HpSDH (in words): preliminary screening concentration 100 μM; for IC50: IC50 toward HpSDH, wild type (26695) HpSDH recombinant protein
T1 construct: made in house; host or cells: E. coli BL21
Description: The recombinant HpSDH (aroE) was cloned in pET-28a plasmid and transformed into E. coli strain BL21 as expression host.
Relative HpSDH activity calculations were based on the initial velocity that absorbance at the 5 to 10% of the time when reaction absorbance reached the maximum level. The variable slope of this time interval represented the reaction rate of HpSDH at various concentration of compound and normalized with the negative control HpSDH (without inhibitor) which represented 100% activity.
To evaluate structure activity relationship (SAR), all the synthesized compounds in SDH inhibition activity on wild type HpSDH recombinant protein was evaluated. All the datas of effective compounds were expressed as IC50 value after treated with different compounds. In priminary screening, using 100 μM as priminary screening concentration to evaluate all synthesized compounds.
(§1) The enzymatic activity of HpSDH was measured in the direction of reduction of NADP^+ to NADPH in the present of shikimic acid at 340 nm absorbance and conducted in 96-well plate ELISA reader. The final concentration of shikimic acid and NADP^+ were 2 mM, and the final protein concentration was 100 nM. Shikimic acid was added by injector needle equipped in ELISA reader to ensure the measurements were made at the same time spacing. NADPH would accumulate along with reaction, and the absorbance at 340 nm would be measured in every cycle of HpSDH reaction.

[3] = tested on: H. pylori; assay: Synergistic effect of compound 25a in MBC test against H. pylori; format: cell-based, Helicobacter pylori; conditions: for MBC: Helicobacter pylori, 24 h, read-out: MBC, single treatment
[4] = biological target: T1, H. pylori Shikimate Dehydrogenase (HpSDH); assay: Enzymatic kinetics of effective compounds toward HpSDH; format: biochemical; conditions: for inhibition type toward NADP+ / inhibition type toward shikimic acid: HpSDH
Description: as §1
To study the inhibition mode of these compounds and inhibition type to shikimic acid and NADP^+, different concentrations of inhibitors and graded concentrations of substrates by activity assay was examined.

T1 sequence (P56119 whole entry): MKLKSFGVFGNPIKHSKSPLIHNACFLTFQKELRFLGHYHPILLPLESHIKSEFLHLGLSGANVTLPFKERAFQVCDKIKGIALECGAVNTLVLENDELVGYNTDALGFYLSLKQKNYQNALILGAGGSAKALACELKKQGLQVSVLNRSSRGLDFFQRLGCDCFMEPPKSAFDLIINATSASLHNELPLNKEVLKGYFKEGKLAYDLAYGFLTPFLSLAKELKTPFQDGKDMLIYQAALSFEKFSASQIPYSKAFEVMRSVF

Structure (SMILES) | MBC ([1]; W.T 26695) | MBC ([1]; clinical isolated strain v574) | MBC ([1]; clinical isolated strain v633) | MBC ([1]; clinical isolated strain v1086) | MBC ([1]; clinical isolated strain v1254) | MBC ([1]; clinical isolated strain v1267) | MBC ([1]; clinical isolated strain v1354) | MBC ([1]; clinical isolated strain v2311) | MBC value against H. pylori ([1]; W.T 26695) | MBC value against H. pylori ([1]; clinical isolated strain v633) | inhibition activity toward HpSDH (in words) [2] | IC50 [2] | Ki [4] | inhibition type toward NADP+ [4] | inhibition type toward shikimic acid [4] | also measured
O=C1NC(=O)C(=C/C=C/c2ccc([N+](=O)[O-])cc2)C(=O)N1 [7b] | 8 mg/L (≈ 27.9 µM) | 8 mg/L (≈ 27.9 µM) | 4 mg/L (≈ 13.9 µM) | 8 mg/L (≈ 27.9 µM) | 8 mg/L (≈ 27.9 µM) | 8 mg/L (≈ 27.9 µM) | 8 mg/L (≈ 27.9 µM) | 16 mg/L (≈ 55.7 µM) | 8.0 mg/L (≈ 27.9 µM) | 4.0 mg/L (≈ 13.9 µM) |  |  |  |  |  | 
C=CCN1C(=O)NC(=O)/C(=C/C=C/c2ccccc2)C1=O [CB6942859] | 5 mg/L (≈ 17.7 µM) |  |  |  |  |  |  |  | 5.0 mg/L (≈ 17.7 µM) |  |  |  |  |  |  | 
COc1cccc(OC)c1/C=C/C=C1C(=O)NC(=O)NC1=O [7h] | 8 mg/L (≈ 26.5 µM) | 8 mg/L (≈ 26.5 µM) | 4 mg/L (≈ 13.2 µM) | 16 mg/L (≈ 52.9 µM) | 32 mg/L (≈ 106 µM) | 8 mg/L (≈ 26.5 µM) | 4 mg/L (≈ 13.2 µM) | 16 mg/L (≈ 52.9 µM) | 8.0 mg/L (≈ 26.5 µM) | 4.0 mg/L (≈ 13.2 µM) | more effective inhibitors |  |  |  |  | MBC value against H. pylori ([1]; clinical isolated strain v1354): 4.0 mg/L (≈ 13.2 µM)
CC[C@H]1OC(=O)[C@H](C)[C@@H](O[C@H]2C[C@@](C)(OC)[C@@H](O)[C@H](C)O2)[C@H](C)[C@@H](O[C@@H]2O[C@H](C)C[C@H](N(C)C)[C@H]2O)[C@](C)(OC)C[C@@H](C)C(=O)[C@H](C)[C@@H](O)[C@]1(C)O [CLR, clarithromycin] |  |  |  |  |  |  |  |  |  |  |  |  |  |  |  | growth of resistant strain v1086 (in words) ([3]; CLR 4 mg/L alone or with compound 25a 2 mg/L): cannot completely inhibit the growth; MBC ([3]; 26695 wild type): < 1 mg/L; MBC ([3]; v574 MTR-resistant strain): < 1 mg/L; MBC ([3]; v1086 CLR-resistant strain): 8 mg/L
CSc1ccc(/C=C/C=C2C(=O)NC(=O)NC2=O)cc1 [7e] | 8 mg/L (≈ 27.7 µM) | 8 mg/L (≈ 27.7 µM) | 8 mg/L (≈ 27.7 µM) | 8 mg/L (≈ 27.7 µM) | 8 mg/L (≈ 27.7 µM) | 8 mg/L (≈ 27.7 µM) | 8 mg/L (≈ 27.7 µM) | 8 mg/L (≈ 27.7 µM) | 8.0 mg/L (≈ 27.7 µM) |  | more effective inhibitors | 22 µM and 11 to 22 µM | 2.67 µM | competitive inhibition | non-competitive or uncompetitive | anti-bacterial activity toward H. pylori (in words) [1]: three most potent inhibitors
COc1ccc(/C=C/C=C2C(=O)NC(=O)NC2=O)cc1 [7d] | 8 mg/L (≈ 29.4 µM) | 8 mg/L (≈ 29.4 µM) | 4 mg/L (≈ 14.7 µM) | 8 mg/L (≈ 29.4 µM) | 8 mg/L (≈ 29.4 µM) | 8 mg/L (≈ 29.4 µM) | 8 mg/L (≈ 29.4 µM) | 16 mg/L (≈ 58.8 µM) | 8.0 mg/L (≈ 29.4 µM) | 4.0 mg/L (≈ 14.7 µM) | more effective inhibitors | 35.1 µM |  |  |  | anti-bacterial activity toward H. pylori (in words) [1]: three most potent inhibitors
O=C1NC(=O)C(=C/C=C/c2ccccc2)C(=O)N1 [7a] |  |  |  |  |  |  |  |  |  |  | more effective inhibitors | 32.7 µM |  |  |  | 
COc1cc(/C=C/C=C2C(=O)NC(=O)NC2=O)cc(OC)c1 [7i] | 8 mg/L (≈ 26.5 µM) | 8 mg/L (≈ 26.5 µM) | 4 mg/L (≈ 13.2 µM) | 8 mg/L (≈ 26.5 µM) | 32 mg/L (≈ 106 µM) | 8 mg/L (≈ 26.5 µM) | 4 mg/L (≈ 13.2 µM) | 16 mg/L (≈ 52.9 µM) | 8.0 mg/L (≈ 26.5 µM) | 4.0 mg/L (≈ 13.2 µM) | more effective inhibitors | 20.3 µM and 11 to 22 µM | 3.81 µM | competitive inhibition | non-competitive or uncompetitive | MBC value against H. pylori ([1]; clinical isolated strain v1354): 4.0 mg/L (≈ 13.2 µM)
Cc1ncc([N+](=O)[O-])n1CCO [MTR, metronidazole] |  |  |  |  |  |  |  |  |  |  |  |  |  |  |  | MBC ([3]; 26695 wild type): < 1 mg/L; MBC ([3]; v574 MTR-resistant strain): 32 mg/L; MBC ([3]; v1086 CLR-resistant strain): < 1 mg/L; growth of v574 strain (in words) ([3]; MTR 16 mg/L alone or with compound 25a 2 mg/L): cannot suppressed the growth; dosage needed to inhibit strain v574 relative to compound 25a ([3]; v574 metronidazole resistant strain): 5 times
Cc1cc(C)cc(N2C(=O)NC(=O)/C(=C\C=C\c3ccccc3)C2=O)c1 [CB6010554] | 10 mg/L (≈ 28.9 µM) |  |  |  |  |  |  |  | 10.0 mg/L (≈ 28.9 µM) |  |  |  |  |  |  | 
COc1ccccc1/C=C/C=C1C(=O)NC(=O)NC1=O [7c] |  |  |  |  |  |  |  |  |  |  | more effective inhibitors | 33.7 µM |  |  |  | MBC ([1]; 24 h, W.T 26695): 16 mg/L (≈ 58.8 µM); MBC ([1]; 24 h, clinical isolated strain v574): 16 mg/L (≈ 58.8 µM); MBC ([1]; 24 h, clinical isolated strain v633): 16 mg/L (≈ 58.8 µM); MBC ([1]; 24 h, clinical isolated strain v1086): 8 mg/L (≈ 29.4 µM); MBC ([1]; 24 h, clinical isolated strain v1254): 16 mg/L (≈ 58.8 µM); MBC ([1]; 24 h, clinical isolated strain v1267): 16 mg/L (≈ 58.8 µM); MBC ([1]; 24 h, clinical isolated strain v1354): 16 mg/L (≈ 58.8 µM); MBC ([1]; 24 h, clinical isolated strain v2311): 16 mg/L (≈ 58.8 µM)
O=C1NC(=O)C(=C/C=C/c2ccc(NC(=O)c3ccccc3)cc2)C(=O)N1 [compound 17, (E)-N-(4-(3-(2,4,6-trioxotetrahydropyrimidin-5(2H)-ylidene)prop-1-en-1-yl)phenyl)benzamide] | 16 mg/L (≈ 44.3 µM) | 16 mg/L (≈ 44.3 µM) | 16 mg/L (≈ 44.3 µM) | 16 mg/L (≈ 44.3 µM) | 16 mg/L (≈ 44.3 µM) | 16 mg/L (≈ 44.3 µM) | 8 mg/L (≈ 22.1 µM) | 16 mg/L (≈ 44.3 µM) |  |  | more effective inhibitors | 16.1 µM and 11 to 22 µM | 6.93 µM | competitive inhibition | non-competitive or uncompetitive | 
C=CCN1C(=O)C(=C/C=C/c2ccccc2)C(=O)N(CC=C)C1=O [25a, (E)-1,3-diallyl-5-(3-phenylallylidene)pyrimidine-2,4,6(1H,3H,5H)-trione] | 8 mg/L (≈ 24.8 µM) | 8 mg/L (≈ 24.8 µM) | 16 mg/L (≈ 49.6 µM) | 8 mg/L (≈ 24.8 µM) | 8 mg/L (≈ 24.8 µM) | 8 mg/L (≈ 24.8 µM) | 8 mg/L (≈ 24.8 µM) | 8 mg/L (≈ 24.8 µM) | 8.0 mg/L (≈ 24.8 µM) |  | more effective inhibitors | 11.4 µM and 11 to 22 µM | 2.01 µM | competitive inhibition | non-competitive or uncompetitive | anti-bacterial activity toward H. pylori (in words) [1]: three most potent inhibitors; MBC [3]: 6 mg/L; MBC, single treatment ([3]; v574 MTR-resistant strain): 6.0 mg/L; MBC, single treatment ([3]; v1086 CLR-resistant strain): 6.0 mg/L

— patent US9145374B2, “Shikimate pathway inhibitors and the use thereof” (National Tsing Hua University, priority 2013, dated 2015)
